Assay results published in patent US20200354426A1 (MEDIMMUNE LIMITED, priority 2016, published 2020).
Several values for one entry are separate records, joined by “and”; a condition that tells them apart may be missing. Identical values can stand only once. Numbered stars: 1 amine (or outer) side, 2 acyl side, 3 side chain; on linkers, the order of the positions; unused ones are H or OH. Side chains are listed from the residue outwards. Peptide text beside a SMILES is read from it. * marks the point of attachment. γGlu = O=C(O)[C@H](CCC(=O)[*:2])N[*:1]; Palmitoyl = CCCCCCCCCCCCCCCC(=O)*

Columns and labels:
Assay in all cases: cAMP activity assay in assay medium (assay 1)
Type in all cases: cell-based
Human GIPr = biological target: T1, Human GIPr (Homo sapiens, UniProt P48546); settings: assay medium; Table 4; read-out: hGIPR EC50
T1 construct: expressed in transfected cells
T1 sequence (P48546 22-466): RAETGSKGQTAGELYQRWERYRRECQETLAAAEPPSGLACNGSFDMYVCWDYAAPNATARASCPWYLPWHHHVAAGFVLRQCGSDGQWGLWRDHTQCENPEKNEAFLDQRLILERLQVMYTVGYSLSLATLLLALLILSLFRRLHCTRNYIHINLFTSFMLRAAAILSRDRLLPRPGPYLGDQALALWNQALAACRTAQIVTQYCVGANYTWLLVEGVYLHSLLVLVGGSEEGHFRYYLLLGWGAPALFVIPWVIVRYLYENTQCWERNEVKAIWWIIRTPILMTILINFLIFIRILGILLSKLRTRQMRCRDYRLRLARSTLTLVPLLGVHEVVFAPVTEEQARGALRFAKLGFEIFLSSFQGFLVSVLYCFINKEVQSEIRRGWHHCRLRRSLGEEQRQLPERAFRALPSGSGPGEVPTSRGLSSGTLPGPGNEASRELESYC
Source text: (§1) Biological Activity of Peptides in Cell-Based cAMP Activity Assay (Assay 1):
(§2) All sample dilutions were made in duplicate.

Human GlucR = biological target: T2, Human GlucR (Homo sapiens, UniProt P47871); settings: assay medium; Table 4; read-out: hGlucR EC50
T2 construct: expressed in transfected cells
T2 sequence (P47871 26-477): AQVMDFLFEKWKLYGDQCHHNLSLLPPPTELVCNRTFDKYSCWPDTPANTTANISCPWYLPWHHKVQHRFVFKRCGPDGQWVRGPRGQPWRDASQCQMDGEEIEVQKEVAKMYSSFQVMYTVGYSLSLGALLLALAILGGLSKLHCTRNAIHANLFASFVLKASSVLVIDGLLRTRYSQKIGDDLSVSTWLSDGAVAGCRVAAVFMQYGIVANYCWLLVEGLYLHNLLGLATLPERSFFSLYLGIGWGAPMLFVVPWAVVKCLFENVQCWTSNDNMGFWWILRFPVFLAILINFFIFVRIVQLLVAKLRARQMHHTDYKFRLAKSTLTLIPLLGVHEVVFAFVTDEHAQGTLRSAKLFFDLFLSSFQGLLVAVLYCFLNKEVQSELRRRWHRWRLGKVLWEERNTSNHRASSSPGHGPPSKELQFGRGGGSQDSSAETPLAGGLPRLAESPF
Source text: as §1, §2

Human GLP1R = Human GLP1R (Homo sapiens, UniProt P43220); parameters: expressed in transfected cells; settings: assay medium; Table 4; read-out: hGLP1R EC50
Sequence of Human GLP1R (P43220 24-463): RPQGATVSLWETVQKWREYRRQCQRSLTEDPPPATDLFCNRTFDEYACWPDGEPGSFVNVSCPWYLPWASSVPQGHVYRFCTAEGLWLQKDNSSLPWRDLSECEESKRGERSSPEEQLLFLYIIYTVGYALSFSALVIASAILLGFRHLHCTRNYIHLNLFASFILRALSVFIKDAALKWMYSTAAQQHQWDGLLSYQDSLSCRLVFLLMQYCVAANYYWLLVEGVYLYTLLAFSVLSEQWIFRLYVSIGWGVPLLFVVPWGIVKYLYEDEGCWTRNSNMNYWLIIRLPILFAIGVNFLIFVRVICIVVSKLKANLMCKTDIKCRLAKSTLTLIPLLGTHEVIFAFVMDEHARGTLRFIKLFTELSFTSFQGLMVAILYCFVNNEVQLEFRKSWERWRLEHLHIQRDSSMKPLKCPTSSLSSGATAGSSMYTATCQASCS
Source text: as §1, §2

`CCCCCCCCCCCCCCCC(=O)N[C@@H](CCC(=O)NCCCC[C@H](NC(=O)[C@H](Cc1ccc(O)cc1)NC(=O)[C@H](CCCCN)NC(=O)[C@H](CO)NC(=O)[C@H](Cc1ccc(O)cc1)NC(=O)[C@H](CC(=O)O)NC(=O)[C@H](CO)NC(=O)[C@@H](NC(=O)[C@H](Cc1ccccc1)NC(=O)[C@@H](NC(=O)CNC(=O)[C@H](CCC(N)=O)NC(=O)CNC(=O)[C@@H](N)Cc1c[nH]cn1)[C@@H](C)O)[C@@H](C)O)C(=O)N[C@@H](CC(=O)O)C(=O)N[C@@H](CO)C(=O)N[C@@H](CCC(=O)O)C(=O)N[C@@H](CCCNC(=N)N)C(=O)N[C@@H](C)C(=O)N[C@@H](CCCNC(=N)N)C(=O)N[C@@H](CC(=O)O)C(=O)N[C@@H](Cc1ccccc1)C(=O)N[C@H](C(=O)N[C@@H](C)C(=O)N[C@@H](Cc1c[nH]c2ccccc12)C(=O)N[C@@H](CC(C)C)C(=O)N[C@H](C(=O)N[C@@H](C)C(=O)NCC(=O)NCC(N)=O)C(C)C)C(C)C)C(=O)O` [g732] (H-HGQGTFTSDYSKYK([γGlu-Palmitoyl])DSERARDFVAWLVAGG-NH2; N-terminus assumed) gave an EC50 (Human GIPr) of 29.4 nM, an EC50 (Human GlucR) of 0.0396 nM and an EC50 (Human GLP1R) of 0.0232 nM.

Work on `CCCCCCCCCCCCCCCC(=O)N[C@@H](CCC(=O)NCCCC[C@H](NC(=O)[C@H](CO)NC(=O)[C@H](CC(=O)O)NC(=O)[C@H](CC(C)C)NC(=O)[C@H](Cc1ccc(O)cc1)NC(=O)[C@H](CCCCN)NC(=O)[C@H](CO)NC(=O)[C@H](Cc1ccc(O)cc1)NC(=O)[C@H](CC(=O)O)NC(=O)[C@H](CO)NC(=O)[C@@H](NC(=O)[C@H](Cc1ccccc1)NC(=O)[C@@H](NC(=O)CNC(=O)[C@H](CCC(N)=O)NC(=O)CNC(=O)[C@@H](N)Cc1c[nH]cn1)[C@@H](C)O)[C@@H](C)O)C(=O)N[C@@H](CCCNC(=N)N)C(=O)N[C@@H](C)C(=O)N[C@@H](CCC(N)=O)C(=O)N[C@@H](CC(=O)O)C(=O)N[C@@H](Cc1ccccc1)C(=O)N[C@H](C(=O)N[C@@H](CCC(N)=O)C(=O)N[C@@H](Cc1c[nH]c2ccccc12)C(=O)N[C@@H](CC(C)C)C(=O)N[C@@H](CCC(=O)O)C(=O)N[C@@H](CCCNC(=N)N)C(=O)NCC(=O)NCC(N)=O)C(C)C)C(=O)O` [g588] yielded an EC50 (Human GIPr) of 98 nM, an EC50 (Human GlucR) of 0.0723 nM and an EC50 (Human GLP1R) of 0.11 nM.

`CCCCCCCCCCCCCCCC(=O)N[C@@H](CCC(=O)NCCCC[C@H](NC(=O)[C@H](Cc1ccc(O)cc1)NC(=O)[C@H](CCCCN)NC(=O)[C@H](CO)NC(=O)[C@H](Cc1ccc(O)cc1)NC(=O)[C@H](CC(=O)O)NC(=O)[C@H](CO)NC(=O)[C@@H](NC(=O)[C@H](Cc1ccccc1)NC(=O)[C@@H](NC(=O)CNC(=O)[C@H](CCC(N)=O)NC(=O)[C@H](CO)NC(=O)[C@@H](N)Cc1c[nH]cn1)[C@@H](C)O)[C@@H](C)O)C(=O)N[C@@H](CC(=O)O)C(=O)N[C@@H](CO)C(=O)N[C@@H](CCCNC(=N)N)C(=O)N[C@@H](CCCNC(=N)N)C(=O)N[C@@H](C)C(=O)N[C@@H](CCC(N)=O)C(=O)N[C@@H](CC(=O)O)C(=O)N[C@@H](Cc1ccccc1)C(=O)N[C@H](C(=O)N[C@@H](CCC(N)=O)C(=O)N[C@@H](Cc1c[nH]c2ccccc12)C(=O)N[C@@H](CC(C)C)C(=O)N[C@@H](CCC(=O)O)C(=O)N[C@@H](C)C(=O)NCC(=O)NCC(N)=O)C(C)C)C(=O)O` [g601] (H-HSQGTFTSDYSKYK([γGlu-Palmitoyl])DSRRAQDFVQWLEAGG-NH2; N-terminus assumed) showed an EC50 (Human GIPr) of 74.1 nM and an EC50 (Human GLP1R) of 0.0398 nM.

With `CCCCCCCCCCCCCCCC(=O)N[C@@H](CCC(=O)NCCCC[C@H](NC(=O)[C@H](Cc1ccc(O)cc1)NC(=O)[C@H](CCCCN)NC(=O)[C@H](CO)NC(=O)[C@H](Cc1ccc(O)cc1)NC(=O)[C@H](CC(=O)O)NC(=O)[C@H](CO)NC(=O)[C@@H](NC(=O)[C@H](Cc1ccccc1)NC(=O)[C@@H](NC(=O)CNC(=O)[C@H](CCC(N)=O)NC(=O)[C@H](CO)NC(=O)[C@@H](N)Cc1c[nH]cn1)[C@@H](C)O)[C@@H](C)O)C(=O)N[C@@H](CC(=O)O)C(=O)N[C@@H](CO)C(=O)N[C@@H](CCCNC(=N)N)C(=O)N[C@@H](CCCNC(=N)N)C(=O)N[C@@H](C)C(=O)N[C@@H](CCCNC(=N)N)C(=O)N[C@@H](CC(=O)O)C(=O)N[C@@H](Cc1ccccc1)C(=O)N[C@H](C(=O)N[C@@H](C)C(=O)N[C@@H](Cc1c[nH]c2ccccc12)C(=O)N[C@@H](CC(C)C)C(=O)N[C@@H](CCC(=O)O)C(=O)N[C@@H](C)C(=O)NCC(=O)NCC(N)=O)C(C)C)C(=O)O` [g780] (H-HSQGTFTSDYSKYK([γGlu-Palmitoyl])DSRRARDFVAWLEAGG-NH2; N-terminus assumed) the EC50 (Human GIPr) was 64 nM and the EC50 (Human GLP1R) was 0.012 nM.

In the case of `CCCCCCCCCCCCCCCC(=O)N[C@@H](CCC(=O)NCCCC[C@H](NC(=O)[C@H](CC(=O)O)NC(=O)[C@H](CO)NC(=O)[C@@H](NC(=O)[C@H](Cc1ccccc1)NC(=O)[C@@H](NC(=O)CNC(=O)[C@H](CCC(N)=O)NC(=O)[C@H](CO)NC(=O)[C@@H](N)Cc1c[nH]cn1)[C@@H](C)O)[C@@H](C)O)C(=O)N[C@@H](CO)C(=O)N[C@@H](CCCCN)C(=O)N[C@@H](Cc1ccc(O)cc1)C(=O)N[C@@H](CC(C)C)C(=O)N[C@@H](CC(=O)O)C(=O)N[C@@H](CO)C(=O)N[C@@H](CCCNC(=N)N)C(=O)N[C@@H](CCCNC(=N)N)C(=O)N[C@@H](C)C(=O)N[C@@H](CCC(N)=O)C(=O)N[C@@H](CC(=O)O)C(=O)N[C@@H](Cc1ccccc1)C(=O)N[C@H](C(=O)N[C@@H](CCC(N)=O)C(=O)N[C@@H](Cc1c[nH]c2ccccc12)C(=O)N[C@@H](CC(C)C)C(=O)N[C@@H](CCC(=O)O)C(=O)N[C@@H](C)C(=O)NCC(=O)NCC(N)=O)C(C)C)C(=O)O` [g717] (H-HSQGTFTSDK([γGlu-Palmitoyl])SKYLDSRRAQDFVQWLEAGG-NH2; N-terminus assumed), the EC50 (Human GIPr) is reported as 1.48 nM and the EC50 (Human GLP1R) is reported as 0.00577 nM.

For `CCCCCCCCCCCCCCCC(=O)NCCCCCC(=O)NCCCC[C@H](NC(=O)[C@H](CO)NC(=O)[C@H](CC(=O)O)NC(=O)[C@H](CC(C)C)NC(=O)[C@H](Cc1ccc(O)cc1)NC(=O)[C@H](CCC(=O)O)NC(=O)[C@H](CO)NC(=O)[C@H](Cc1ccc(O)cc1)NC(=O)[C@H](CC(=O)O)NC(=O)[C@H](CO)NC(=O)[C@@H](NC(=O)[C@H](Cc1ccccc1)NC(=O)[C@@H](NC(=O)CNC(=O)[C@H](CCC(N)=O)NC(=O)CNC(=O)[C@@H](N)Cc1c[nH]cn1)[C@@H](C)O)[C@@H](C)O)C(=O)N[C@@H](CCCNC(=N)N)C(=O)N[C@@H](C)C(=O)N[C@@H](C)C(=O)N[C@@H](CC(=O)O)C(=O)N[C@@H](Cc1ccccc1)C(=O)N[C@H](C(=O)N[C@@H](C)C(=O)N[C@@H](Cc1c[nH]c2ccccc12)C(=O)N[C@@H](CC(C)C)C(=O)N[C@@H](CCC(=O)O)C(=O)N[C@@H](CCCNC(=N)N)C(=O)NCC(=O)NCC(N)=O)C(C)C` [g683], the EC50 (Human GIPr) was 126 nM and the EC50 (Human GLP1R) was 0.0159 nM.

`CCCCCCCCCCCCCCCC(=O)N[C@@H](CCC(=O)NCCCC[C@H](NC(=O)[C@H](CC(=O)O)NC(=O)[C@H](CO)NC(=O)[C@@H](NC(=O)[C@H](Cc1ccccc1)NC(=O)[C@@H](NC(=O)CNC(=O)[C@H](CCC(N)=O)NC(=O)[C@H](CO)NC(=O)[C@@H](N)Cc1c[nH]cn1)[C@@H](C)O)[C@@H](C)O)C(=O)N[C@@H](CO)C(=O)N[C@@H](CCCNC(=N)N)C(=O)N[C@@H](Cc1ccc(O)cc1)C(=O)N[C@@H](CC(C)C)C(=O)N[C@@H](CC(=O)O)C(=O)N[C@@H](CO)C(=O)N[C@@H](CCC(=O)O)C(=O)N[C@@H](CCCNC(=N)N)C(=O)N[C@@H](C)C(=O)N[C@@H](CCCNC(=N)N)C(=O)N[C@@H](CC(=O)O)C(=O)N[C@@H](Cc1ccccc1)C(=O)N[C@H](C(=O)N[C@@H](C)C(=O)N[C@@H](Cc1c[nH]c2ccccc12)C(=O)N[C@@H](CC(C)C)C(=O)N[C@@H](CCC(=O)O)C(=O)N[C@@H](C)C(=O)NCC(=O)NCC(N)=O)C(C)C)C(=O)O` [g848] (H-HSQGTFTSDK([γGlu-Palmitoyl])SRYLDSERARDFVAWLEAGG-NH2; N-terminus assumed) was tested, and the EC50 (Human GIPr) was 2.77 nM and the EC50 (Human GLP1R) was 0.00942 nM.

`CCCCCCCCCCCCCCCC(=O)N[C@@H](CCC(=O)NCCCC[C@H](NC(=O)[C@H](CO)NC(=O)[C@H](CC(=O)O)NC(=O)[C@H](CC(C)C)NC(=O)[C@H](Cc1ccc(O)cc1)NC(=O)[C@H](CCCCN)NC(=O)[C@H](CO)NC(=O)[C@H](Cc1ccc(O)cc1)NC(=O)[C@H](CC(=O)O)NC(=O)[C@H](CO)NC(=O)[C@@H](NC(=O)[C@H](Cc1ccccc1)NC(=O)[C@@H](NC(=O)CNC(=O)[C@H](CCC(N)=O)NC(=O)[C@H](CO)NC(=O)[C@@H](N)Cc1c[nH]cn1)[C@@H](C)O)[C@@H](C)O)C(=O)N[C@@H](CCCNC(=N)N)C(=O)N[C@@H](C)C(=O)N[C@@H](CCC(=O)O)C(=O)N[C@@H](CC(=O)O)C(=O)N[C@@H](Cc1ccccc1)C(=O)N[C@H](C(=O)N[C@@H](CCC(N)=O)C(=O)N[C@@H](Cc1c[nH]c2ccccc12)C(=O)N[C@@H](CC(C)C)C(=O)N[C@H](C(=O)N[C@@H](C)C(=O)NCC(=O)NCC(N)=O)C(C)C)C(C)C)C(=O)O` [g599] was tested, and the EC50 (Human GIPr) was 113 nM and 112 nM and the EC50 (Human GlucR) was 0.0962 nM and 0.0698 nM.
